Data: US20260115280A1, “VACCINES” (ADJUVANCE TECHNOLOGIES, INC., priority 2021, published 2026)

Key:
[1] = test system: spleen lymphocytes; test: FluoroSpot (T-cell) assay, spot forming cells per million spleen lymphocytes (Example 4); type: in vivo; settings: mice
Method: (§1) The impact of TQL-1055 choline salt (in situ salt) at various dosages, a TLR9 or TLR4 agonist, and VZV gE (expressed by CHO cells), as compared to AS-01B (5 mcg MPL+5 mcg QS-21) was tested. In Experiment #1, mice were immunized with PBS alone, gE (5 mcg)+TLR9 ligand (50 mcg)+TQL-1055 (four groups: 5 mcg, 15 mcg, 25 mcg, 50 mcg), and AS-01B. In Experiment #2, mice were immunized with PBS alone, gE (5 mcg)+TLR4 ligand (5 mcg)+TQL-1055 (four groups: 5 mcg, 15 mcg, 25 mcg, 50 mcg), and AS-01B.
(§2) Mice were immunized at Day 0 and Day 21. Groups were bled at Day 31 […] for serum analysis.
FIG. 24 is a graph depicting the results of a FluroSpot (T-cell) assay showing spot forming cells per million spleen lymphocytes for Experiment 1. FIG. 25 is a graph depicting the results of a FluroSpot (T-cell) assay showing spot forming cells per million spleen lymphocytes for Experiment 2.

[2] = Weight loss: mean percent initial weight change after immunization (Example 6); type: in vivo, C57BL/6J mice; settings: mice; TQL 1055 alone with gE
Method: (§3) The tolerability and immunogenicity of formulations containing (TQL-1055 free acid HP-β-CD (2-hydroxypropyl beta-cyclodextrin) and TLR4 agonist candidates were studied. CD-1 mice were immunized as shown in the table below. PHAD liposomes were obtained from Avanti. EcML was obtained from EuBiologics. CRX-527 was obtained from InvivoGen. TLR4a-1 is an undisclosed TLR4 compound. AS01 is a combination of 5 mcg QS-21 and 5 mcg MPL used in SHINGRIX.
The study was conducted in two parts with staggered start dates. Part A involved testing TQL1055 in combination with PHAD and EcML. Part B involved testing TQL1055 in combination with CRX-527 and TR4a-1.
Mice were immunized via I.M. on Day 0 and Day 14. Groups were bled at Day-1, Day 13 (post Dose 1), and Day 28 (post Dose 2) for serum analysis for anti-gE specific antibody response. Weight measurements were also obtained on Days 0, 1, 2, 14, 15, 16, and 17.
Post dose 1 mean percent (%) initial weight change for each group is depicted in FIGS. 40-45. Post dose 1 weight loss heatmaps are depicted in FIG. 46. Post dose 2 mean percent (%) initial weight change for each group is depicted in FIGS. 47-51. […] Weight loss appeared to be driven mostly by TLR4 dose.

[3] = test system: VZV gE; test: ELISA antibody titers (Example 4); type: in vivo, Varicella zoster virus; settings: mice
Method: as §1, §2
FIG. 26 is a graph depicting the results of an enzyme-linked immunosorbent assay (ELISA) showing antibody titers for […]. FIG. 27 is a graph depicting the results of an enzyme-linked immunosorbent assay (ELISA) showing antibody titers for Experiment 1.

[4] = test system: CD4+ T cells; test: T-cell intracellular cytokine staining (ICS) assay, CD4+ T-cell (Example 4); type: in vivo; settings: mice
Method: as §1, §2
FIG. 22 is a graph depicting the results of a T-cell intracellular cytokine staining (ICS) assay (CD4+ T-cell) showing the percentage of CD4+ T cells expressing one or more cytokines in response to stimulation with VZV gE for Experiment 1. FIG. 23 is a graph depicting the results of T-cell intracellular cytokine staining (ICS) assays (CD4+ T-cell) showing the percentage of CD4+ T cells expressing one or more cytokines in response to stimulation with VZV gE for Experiment 2.

[5] = test system: CD4+ T cells; test: D26 CD4 T-cell ICS (Example 5); type: in vivo; settings: CD-1 mice, high dose PHAD, high dose CRX-527, low dose TLR4a-1 (each with gE + 40 mcg TQL-1055)
Text: as §3
(§4) Mice were immunized via I.M. on Day 0 and Day 14. […] Weight measurements were also obtained on Days 0, 1, 2, 14, 15, 16, and 17.
The increases were driven largely by higher single cytokine positive T cells for IFN-γ or IL-2.

[6] = test system: CD4+ T cells; test: D42 CD4 T-cell ICS (Example 5); type: in vivo; settings: CD-1 mice; AS01; both PHAD doses, high dose TLR4a-1, high dose CRX-527 (each with gE + 40 mcg TQL-1055)
Text: as §3
(§5) Mice were immunized via I.M. on Day 0 and Day 14. Groups were bled at Day-1, Day 13 (post Dose 1), and Day 28 (post Dose 2) for serum analysis for anti-gE specific antibody response and anti-gE specific T cell response. Weight measurements were also obtained on Days 0, 1, 2, 14, 15, 16, and 17.
Overall, levels of activation much lower than D26 T cell data.

[7] = test system: CD8 T cells; test: D26 CD8 T-cell ICS (Example 5); type: in vivo; settings: CD-1 mice; high dose PHAD, both doses CRX-527, high dose TLR4a-1 (each with gE + 40 mcg TQL-1055); AS01
Text: as §3, §4

[8] = test system: gE; test: Anti-gE ELISA, D28 total IgG endpoint titers (Example 5); type: in vivo, Varicella zoster virus; settings: CD-1 mice; high vs low TLR4 agonist dose with 5 mcg gE + 40 mcg TQL-1055 FA HPβCD
Text: as §3, §5

[9] = test system: gE; test: Anti-gE ELISA, D28 IgG2a subclass endpoint titers (Example 5); type: in vivo, Varicella zoster virus; settings: CD-1 mice; with 5 mcg gE + 40 mcg TQL-1055; EcML statement at the low TLR4a dose
Text: as §3, §5
Similar responses were observed from all 4 TLR4 agonists with CRX-527 having the lowest IgG2a titers. There was a more pronounced dose effect of TLR4a on IgG2a than total IgG. PHAD had the largest difference between low and high dose at 8 times higher. At the low TLR4a dose, EcML had the highest IgG2a.

[10] = TQL-1055 5 mcg combined with TLR4 ligand vs AS-01B
[11] = gE 5 mcg + TLR9 ligand 50 mcg or TLR4 ligand 5 mcg + TQL-1055 5, 15, 25, 50 mcg

Structure (SMILES): CC1O[C@@H](OC2C(O)[C@@H](NC(=O)CCCCCCCCCCC(=O)O)C(CO)O[C@H]2OC(=O)[C@]23CCC(C)(C)CC2C2=CCC4C5(C)CC[C@H](O)C(C)(C=O)C5CCC4(C)C2(C)CC3O)C(O)C(O)[C@H]1O[C@@H]1OC[C@@H](O)C(O)C1O (stereo partly shown) [TQL-1055]
- T-cell response by FluoroSpot compared to AS-01B [1, 10]: without any significant difference
- T-cell response by FluoroSpot: dose dependence [1, 11]: dose-dependent
- weight loss compared to unadjuvanted [2]: no significant weight loss
- antibody response by ELISA compared to AS-01B [3, 10]: without any significant difference
- antibody response by ELISA: dose dependence [3, 11]: dose-dependent
- T-cell response by ICS compared to AS-01B ([4]; TQL-1055 5 mcg combined with TLR4 ligand vs AS-01B (5 mcg MPL + 5 mcg QS-21)): without any significant difference
- T-cell response by ICS (CD4+ T cells expressing one or more cytokines on stimulation with VZV gE): dose dependence [4, 11]: dose-dependent

Structure (SMILES): CCCCCCCCCCC[C@H](CC(=O)N[C@H]1[C@H](OC[C@H](NC(=O)C[C@@H](CCCCCCCCCCC)OC(=O)CCCCCCCCC)C(=O)O)O[C@H](CO)[C@@H](OP(=O)(O)O)[C@@H]1OC(=O)C[C@@H](CCCCCCCCCCC)OC(=O)CCCCCCCCC)OC(=O)CCCCCCCCC [CRX-527]
- D26 total cytokine+ CD4+ T cells compared to unadjuvanted ([5]; AS01): significantly increased
- D26 total polyfunctional CD4+ T cells compared to unadjuvanted control [5]: significantly higher
- D42 total cytokine+ CD4+ T cells compared to unadjuvanted [6]: significantly increased
- D26 activated CD8 T cells compared to unadjuvanted control group [7]: significantly higher
- effect of increasing the TLR4 agonist dose on D28 total IgG endpoint titers [8]: no effect
- rank of IgG2a titers among the 4 TLR4 agonists [9]: lowest
